IC50 data for 5 compounds are collected here from PubChem BioAssay AID652112 (The Scripps Research Institute Molecular Screening Center, 2013).

For the test, the target named is Serine/threonine-protein phosphatase PP1-alpha catalytic subunit (Homo sapiens) (UniProt P62136). The test is described as follows: dose-dependent PP1 inhibition, physiologic substrate – biochemical, radiolabel, phosphorylase substrate, powder samples, orthogonal assay for PP1 inhibitor probe project, dose response (AID 652112). Particulars: purified PP1, 32P/33P-phosphorylase dephosphorylation, scintillation.
Chain of Serine/threonine-protein phosphatase PP1-alpha catalytic subunit (Homo sapiens) (P62136 whole entry, looked up): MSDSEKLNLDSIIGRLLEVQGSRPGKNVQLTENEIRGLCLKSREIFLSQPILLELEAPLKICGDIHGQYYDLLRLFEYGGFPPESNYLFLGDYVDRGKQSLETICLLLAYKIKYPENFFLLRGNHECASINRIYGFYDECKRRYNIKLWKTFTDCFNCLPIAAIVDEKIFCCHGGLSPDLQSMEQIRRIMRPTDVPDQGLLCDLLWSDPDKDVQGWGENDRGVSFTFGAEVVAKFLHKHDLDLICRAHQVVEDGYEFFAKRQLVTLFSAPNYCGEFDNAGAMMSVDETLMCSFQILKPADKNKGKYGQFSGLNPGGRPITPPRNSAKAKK
`N#Cc1c(-c2ccc(Cl)cc2)cc(-c2cccs2)nc1SCC(=O)O`: the half-maximal inhibitory concentration (IC50) is 21.9 µM.
Regarding `COc1ccc(NC(=O)C2C3CCC(O3)C2C(=O)O)c(OC)c1` (stereo not given), the IC50 was 18.9 µM.
On to `CCn1c2ccccc2c2cc(NC(=O)COC(=O)c3ccc(NC(=O)CC#N)cc3)ccc21`, for which the half-inhibitory concentration (IC50) is 38 µM.
Consider `CCOC(=O)c1sc2nc3c(SCC(=O)O)cc(C(=O)c4cc(F)ccc4O)cn3c(=O)c2c1C`, for which the IC50 was 8.54 µM.
In the case of `CN1CCN(C(c2ccccn2)c2cc(Cl)c3cccnc3c2O)CC1` (stereo not given) it was 4.89 µM.

Usually IC50 stands for the midpoint of a concentration-inhibition curve.
